Results: PubChem BioAssay AID328 (DTP/NCI, 2004)
Values joined by “and” are separate entries in the source; they are usually repeats but may differ in a detail not shown here. Identical values can stand only once. Inconclusive results and toxic doses are left out. How the source made its calls: active means survival T/C of 150% or more; inactive means T/C below 125% in these data.

System: BDF1 mice, P388 leukemia ip, median survival T/C
Test: NCI In Vivo Anticancer Drug Screen. Data for tumor model P388 Leukemia (intraperitoneal) in B6D2F1 (BDF1) mice
Conditions: endpoint: median survival time, higher = longer survival
Experimental: The antitumor activity of compounds was measured in mice bearing transplantable tumors. Survival or tumor size were measured and the results are expressed as the measurement made in the treated group (T) divided by the measurement made in the vehicle treated control group (C). The tumor model used in this assay is P388 Leukemia (intraperitoneal) in B6D2F1 (BDF1) mice

[1] = dose: 100.0 mg/kg/injection, schedule: Q01DX009 (ip), vehicle: saline with Tween-80
[2] = dose: 100.0 mg/kg/injection, schedule: Q04DX003 (ip), vehicle: saline with Tween-80
[3] = dose: 200.0 mg/kg/injection, schedule: Q04DX003 (ip), vehicle: saline with Tween-80
[4] = dose: 400.0 mg/kg/injection, schedule: Q04DX003 (ip), vehicle: saline with Tween-80
[5] = dose: 50.0 mg/kg/injection, schedule: Q01DX009 (ip), vehicle: saline with Tween-80

Measured: T/C

COc1cc(C[C@H]2c3cc(OC)c(OC)cc3CCN2C)c(Oc2cc3c(cc2OC)-c2c(OC)c(OC)cc4c2[C@H](C3)N(C)CC4)cc1OC
inactive: dose: 9.0 mg/kg/injection, schedule: Q01DX010 (ip), vehicle: other 90 % of control | dose: 12.0 mg/kg/injection, schedule: Q01DX005 (ip), vehicle: other 95 % of control | dose: 12.0 mg/kg/injection, schedule: Q01DX010 (ip), vehicle: other 100 % of control | dose: 12.5 mg/kg/injection, schedule: Q01DX010 (ip), vehicle: other 109 % of control | dose: 18.0 mg/kg/injection, schedule: Q04DX003 (ip), vehicle: other 95 % of control | dose: 18.75 mg/kg/injection, schedule: Q01DX010 (ip), vehicle: other 118 % of control | dose: 24.0 mg/kg/injection, schedule: Q01DX005 (ip), vehicle: other 90 % of control | dose: 24.0 mg/kg/injection, schedule: Q01DX010 (ip), vehicle: other 104 % of control | dose: 25.0 mg/kg/injection, schedule: Q01DX010 (ip), vehicle: acetone 104 % of control | dose: 25.0 mg/kg/injection, schedule: Q01DX010 (ip), vehicle: other 104 % of control | dose: 27.0 mg/kg/injection, schedule: Q08DX002 (ip), vehicle: other 100 % of control | dose: 36.0 mg/kg/injection, schedule: Q04DX003 (ip), vehicle: other 90 % of control | dose: 37.5 mg/kg/injection, schedule: Q01DX010 (ip), vehicle: carboxymethylcellulose (CMC) 100 % of control | dose: 37.5 mg/kg/injection, schedule: Q01DX010 (ip), vehicle: other 104 % of control | dose: 48.0 mg/kg/injection, schedule: Q01DX005 (ip), vehicle: other 100 % of control | dose: 48.0 mg/kg/injection, schedule: Q01DX010 (ip), vehicle: other 104 % of control | dose: 50.0 mg/kg/injection, schedule: Q01DX010 (ip), vehicle: acetone 109 % of control | dose: 50.0 mg/kg/injection, schedule: Q01DX010 (ip), vehicle: clinical formulation 109 % of control | dose: 50.0 mg/kg/injection, schedule: Q01DX010 (ip), vehicle: other 120 % of control | dose: 54.0 mg/kg/injection, schedule: Q08DX002 (ip), vehicle: other 95 % of control | dose: 72.0 mg/kg/injection, schedule: Q04DX003 (ip), vehicle: other 100 % of control | dose: 75.0 mg/kg/injection, schedule: Q01DX010 (ip), vehicle: carboxymethylcellulose (CMC) 100 % of control | dose: 96.0 mg/kg/injection, schedule: Q01DX005 (ip), vehicle: other 100 % of control | dose: 96.0 mg/kg/injection, schedule: Q01DX010 (ip), vehicle: other 109 % of control | dose: 100.0 mg/kg/injection, schedule: Q01DX001 (ip), vehicle: carboxymethylcellulose (CMC) 110 % of control | dose: 100.0 mg/kg/injection, schedule: Q01DX010 (ip), vehicle: acetone 113 % of control | dose: 100.0 mg/kg/injection, schedule: Q01DX010 (ip), vehicle: other 120 % of control | dose: 100.0 mg/kg/injection, schedule: Q04DX002 (ip), vehicle: Klucel (hydroxypropylcellulose) (HPC) 100 % of control | dose: 108.0 mg/kg/injection, schedule: Q08DX002 (ip), vehicle: other 100 % of control | dose: 150.0 mg/kg/injection, schedule: Q01DX010 (ip), vehicle: carboxymethylcellulose (CMC) 105 % of control | dose: 200.0 mg/kg/injection, schedule: Q01DX001 (ip), vehicle: carboxymethylcellulose (CMC) 105 % of control | dose: 200.0 mg/kg/injection, schedule: Q01DX010 (ip), vehicle: other 100 % of control | dose: 200.0 mg/kg/injection, schedule: Q04DX002 (ip), vehicle: Klucel (hydroxypropylcellulose) (HPC) 91 % of control | dose: 216.0 mg/kg/injection, schedule: Q08DX002 (ip), vehicle: other 100 % of control | dose: 400.0 mg/kg/injection, schedule: Q01DX001 (ip), vehicle: carboxymethylcellulose (CMC) 110 % of control | dose: 400.0 mg/kg/injection, schedule: Q04DX002 (ip), vehicle: Klucel (hydroxypropylcellulose) (HPC) 100 % of control

COC1CC(N=[N+]=[N-])C(OC(=O)c2ccccc2)C(C)O1 (centres undefined)
inactive: [1] 94 % of control | [2] 101 % of control | [3] 106 % of control | [4] 106 % of control

COc1cc(OC)c(C(=O)CCc2ccccc2)c(O)c1Cc1ccccc1O
inactive: dose: 0.5 mg/kg/injection, schedule: Q01DX009 (ip), vehicle: saline 106 % of control | dose: 2.0 mg/kg/injection, schedule: Q01DX009 (ip), vehicle: saline 113 % of control | dose: 4.0 mg/kg/injection, schedule: Q01DX009 (ip), vehicle: saline with Tween-80 120 % of control | dose: 4.0 mg/kg/injection, schedule: Q01DX009 (ip), vehicle: saline 103 % of control | dose: 5.9 mg/kg/injection, schedule: Q01DX009 (ip), vehicle: saline with Tween-80 103 % of control | dose: 13.0 mg/kg/injection, schedule: Q01DX009 (ip), vehicle: saline with Tween-80 103 % of control

Cc1cc(=O)cc(C(=O)O)o1
inactive: dose: 25.0 mg/kg/injection, schedule: Q04DX003 (ip), vehicle: saline 113 % of control | dose: 50.0 mg/kg/injection, schedule: Q04DX003 (ip), vehicle: saline 100 % of control | dose: 100.0 mg/kg/injection, schedule: Q04DX003 (ip), vehicle: saline 90 % of control

S=c1[nH]ncn1-c1ccccc1
inactive: dose: 6.25 mg/kg/injection, schedule: Q01DX009 (ip), vehicle: saline with Tween-80 99 % of control | dose: 12.5 mg/kg/injection, schedule: Q01DX009 (ip), vehicle: saline with Tween-80 99 % of control | dose: 25.0 mg/kg/injection, schedule: Q01DX009 (ip), vehicle: saline with Tween-80 99 % of control | [5] 96 % of control

COc1cccc2c1C(=O)c1c(O)c3c(c(O)c1C2=O)C[C@@](O)(C(=O)CO)C[C@@H]3OC1CC(NC(=O)C(F)(F)F)C(O)C(C)O1 (some centres undefined)
inactive: dose: 3.13 mg/kg/injection, schedule: Q04DX009 (ip), vehicle: other 113 % of control | dose: 6.25 mg/kg/injection, schedule: Q04DX009 (ip), vehicle: other 121 % of control | dose: 12.5 mg/kg/injection, schedule: Q04DX009 (ip), vehicle: other 123 % of control

NC1=NS(=O)(=O)N=C(N)C1=NNc1cccc(Cl)c1
inactive: [5] 94 % of control | [1] 103 % of control | dose: 200.0 mg/kg/injection, schedule: Q01DX009 (ip), vehicle: saline with Tween-80 92 % of control

[O-][n+]1c(CCl)nc2ccccc2c1-c1ccccc1F
inactive: [5] 118 % of control | [1] 105 % of control

O=C(N1CCCC1)C(F)(F)C(F)(F)C(F)(F)F
inactive: [5] 90 % of control | [1] 99 % of control

CCCSc1ncnc2nc[nH]c12
inactive: dose: 31.3 mg/kg/injection, schedule: Q01DX010 (ip), vehicle: saline 95 % of control and 120 % of control | dose: 62.5 mg/kg/injection, schedule: Q01DX010 (ip), vehicle: saline 100 % of control and 105 % of control | dose: 125.0 mg/kg/injection, schedule: Q01DX010 (ip), vehicle: saline 95 % of control and 100 % of control

Cc1nnc(NC(=O)CCl)s1
inactive: dose: 25.0 mg/kg/injection, schedule: Q01DX009 (ip), vehicle: saline 95 % of control and 100 % of control and 113 % of control | dose: 35.0 mg/kg/injection, schedule: Q01DX009 (ip), vehicle: saline 113 % of control | dose: 50.0 mg/kg/injection, schedule: Q01DX009 (ip), vehicle: saline 100 % of control | dose: 100.0 mg/kg/injection, schedule: Q01DX009 (ip), vehicle: Klucel (hydroxypropylcellulose) (HPC) 106 % of control | dose: 100.0 mg/kg/injection, schedule: Q01DX009 (ip), vehicle: saline 100 % of control and 105 % of control | dose: 200.0 mg/kg/injection, schedule: Q01DX009 (ip), vehicle: Klucel (hydroxypropylcellulose) (HPC) 111 % of control

CC(=O)Nc1ccc(NC2=NCCO2)cc1
inactive: dose: 50.0 mg/kg/injection, schedule: Q01DX001 (ip), vehicle: saline with Tween-80 100 % of control | dose: 100.0 mg/kg/injection, schedule: Q01DX001 (ip), vehicle: saline with Tween-80 95 % of control | dose: 200.0 mg/kg/injection, schedule: Q01DX001 (ip), vehicle: saline with Tween-80 90 % of control

CC1CNC(=S)O1 (centres undefined)
inactive: dose: 50.0 mg/kg/injection, schedule: Q04DX003 (ip), vehicle: saline with Tween-80 90 % of control | [2] 120 % of control | [3] 90 % of control | [4] 115 % of control
